Assay results reported in publication PMC7896091, “Synthesis of novel phytol-derived γ-butyrolactones and evaluation of their biological activity” (Scientific Reports, 2021).

Key:
[1] = test system: rats; set-up: method as in PMID 20141879; conditions: cited from earlier work
[2] = test system: albino mice; set-up: method as in PMID 20141879; conditions: cited from earlier work
[3] = test system: MV4-11 cells; assay: Cell cycle analysis by flow cytometry (propidium iodide); format: cell-based, human; conditions: MV4-11, 75 µM, 72 h
Description: Cell cycle analysis was carried out according to the procedure previously described. The MV4-11 cells were seeded at the density of 1 × 10^5 cells/well of culture medium on 24-well plates (Sarstedt, Germany) to the final volume of 2 mL and were exposed to the test compounds at concentrations 75 μM for 72 h. After incubation, the cells were collected and 1 × 10^6 of cells were washed twice in cold PBS and fixed for 24 h in 70% ethanol at − 20 °C. Then the cells were washed twice in PBS and incubated with RNAse (8 μg/mL, Fermentas, Germany) at 37 °C for 1 h. The cells were stained for 30 min. with propidium iodide (50 μg/mL, Sigma Aldrich, Germany) at 4 °C and the cellular DNA content was analyzed by flow cytometry using BD LSRFortessa cytometer (BD Bioscience, San Jose, USA). Compounds at each concentration were tested at least three times independently. Obtained results were analyzed using Flowing software 2 (Cell Imaging Core, Turku Centre for Biotechnology, University of Turku Åbo Akademi University).

[4] = test system: caspase-3/7 in MV4-11 cells; assay: Caspase-3/7 activity determination (Ac-DEVD-ACC substrate); format: cell-based, human; conditions: MV4-11, 75 µM, 72 h
Description: Caspase-3/7 activity determination was performed according to the protocol previously described. The MV4-11 cells were seeded at the density of 1 × 10^5 cells/mL of culture medium on 24-well plates (Sarstedt, Germany) to the final volume of 2 mL. The cells were exposed to the test compounds at concentrations 75 μM or campthothecin (0.05 μg/mL) as a positive control, for 72 h. After 72 h of the incubation, the cells were collected and centrifuged (5 min., 4 °C, 250×g). Cells were suspended in 50 µL of ice-cold lysis buffer (50 mM HEPES, 10% (w/v) sucrose, 150 mM NaCl, 2 mM EDTA, 1% (v/v) Triton X-100, pH 7.3, IIET, Poland) and incubated 30 min. at 4 °C. After the incubation, 40 µL of each sample was transferred to a white, 96-well plate (Corning, USA) containing 160 µL of the reaction buffer (20 mM HEPES, 10% sucrose, 100 mM NaCl, 1 mM EDTA, 10 mM DTT, 0.02% Trition X-100, pH 7.3) (IIET, Wroclaw, Poland) with 9 µM Ac-DEVD-ACC fluorogenic substrate (λex = 360 nm, λem = 460 nm). The fluorescence increase correlated with the caspase-3/7 level was continuously recorded at 37 °C for 120 min using a Biotek Synergy H4 (Biokom, Warsaw, Poland). Compounds were tested in duplicates in single experiment and each experiment was repeated at least three times independently. Results were normalized to the number of cells in each well and are reported as mean relative caspase-3/7 activity compared to untreated control sample ± SD.

## 3,7,11,15-tetramethylhexadec-2-en-1-ol [Phytol (1), reference compound]
[1]
  Lethal dose (LD50): > 10000 mg/kg
[2]
  Lethal dose (LD50): above 5 g/kg

## CC(C)CCCC(C)CCCC(C)CCC[C@]1(C)CC(=O)O[C@@H]1CBr (stereo in doubt) [compound 4, trans-5-Bromomethyl-4-methyl-4-(4′,8′,12′-trimethyltridecyl)dihydrofuran-2-one]
[3]
  Induced death of cells: 20–30%

## CC(C)CCCC(C)CCCC(C)CCC[C@]1(C)CC(=O)O[C@H]1CBr (stereo in doubt) [compound 5, cis-5-Bromomethyl-4-methyl-4-(4′,8′,12′-trimethyltridecyl)dihydrofuran-2-one]
[3]
  Induced death of cells: 20–30%

## CC(C)CCCC(C)CCCC(C)CCC[C@]1(C)CC(=O)O[C@@H]1CCl (stereo in doubt) [compound 6, trans-5-Chloromethyl-4-methyl-4-(4′,8′,12′-trimethyltridecyl)dihydrofuran-2-one]
[4]
  Increase of caspase-3/7 activity compared to the control: about 1.5 times
[3]
  Induced death of cells: 50%

## CC(C)CCCC(C)CCCC(C)CCC[C@]1(C)CC(=O)O[C@H]1CCl (stereo in doubt) [compound 7, cis-5-chloromethyl-4-methyl-4-(4′,8′,12′-trimethyltridecyl)dihydrofuran-2-one]
[3]
  Induced death of cells: 20–30%

## C=CC(C)(CCCC(C)CCCC(C)CCCC(C)C)CC(=O)O (stereo not drawn) [compound 3, 3,7,11,15-tetramethyl-3-vinylhexadecanoic acid]
[4]
  Increase of caspase-3/7 activity compared to the control: 3 times
[3]
  Induced death of cells: 50%
